Results from PubChem BioAssay AID248 (DTP/NCI, 2004).
Where “and” joins values, the source holds several entries; their conditions need not be identical. Equal values may be shown once. Inconclusive results and toxic doses are left out.

Test system: L1210 leukemia ip in BDF1 mice, survival T/C
Experiment: NCI In Vivo Anticancer Drug Screen. Data for tumor model L1210 Leukemia (intraperitoneal) in B6D2F1 (BDF1) mice
Details: endpoint: mean survival time, higher = longer survival
Summary of the method: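 Value reflects the ratio of survival in compound-treated mice to survival in vehicle-treated controls, with both groups carrying the same transplanted tumor.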

[1] = dose: 100.0 mg/kg/injection, schedule: Q01DX009 (ip), vehicle: saline with Tween-80
[2] = dose: 100.0 mg/kg/injection, schedule: Q04DX002 (ip), vehicle: saline with Tween-80
[3] = dose: 200.0 mg/kg/injection, schedule: Q01DX009 (ip), vehicle: saline with Tween-80
[4] = dose: 200.0 mg/kg/injection, schedule: Q04DX002 (ip), vehicle: saline with Tween-80
[5] = dose: 400.0 mg/kg/injection, schedule: Q01DX009 (ip), vehicle: saline with Tween-80
[6] = dose: 400.0 mg/kg/injection, schedule: Q04DX002 (ip), vehicle: saline with Tween-80
[7] = dose: 400.0 mg/kg/injection, schedule: Q01DX001 (ip), vehicle: saline
[8] = dose: 400.0 mg/kg/injection, schedule: Q01DX009 (ip), vehicle: saline
[9] = dose: 100.0 mg/kg/injection, schedule: Q04DX003 (ip), vehicle: saline
[10] = dose: 200.0 mg/kg/injection, schedule: Q04DX003 (ip), vehicle: saline
[11] = dose: 400.0 mg/kg/injection, schedule: Q04DX003 (ip), vehicle: saline
[12] = dose: 100.0 mg/kg/injection, schedule: Q04DX003 (ip), vehicle: Klucel (hydroxypropylcellulose) (HPC)
[13] = dose: 200.0 mg/kg/injection, schedule: Q04DX003 (ip), vehicle: Klucel (hydroxypropylcellulose) (HPC)
[14] = dose: 400.0 mg/kg/injection, schedule: Q04DX003 (ip), vehicle: Klucel (hydroxypropylcellulose) (HPC)
[15] = dose: 100.0 mg/kg/injection, schedule: Q01DX009 (ip), vehicle: Klucel (hydroxypropylcellulose) (HPC)
[16] = dose: 200.0 mg/kg/injection, schedule: Q01DX009 (ip), vehicle: Klucel (hydroxypropylcellulose) (HPC)
[17] = dose: 100.0 mg/kg/injection, schedule: Q01DX009 (ip), vehicle: saline
[18] = dose: 100.0 mg/kg/injection, schedule: Q01DX001 (ip), vehicle: carboxymethylcellulose (CMC)
[19] = dose: 200.0 mg/kg/injection, schedule: Q01DX001 (ip), vehicle: carboxymethylcellulose (CMC)
[20] = dose: 400.0 mg/kg/injection, schedule: Q01DX001 (ip), vehicle: carboxymethylcellulose (CMC)

Compound: O=C(O)c1ccc(N=Cc2cccc([N+](=O)[O-])c2)cc1
- T/C (dose: 100.0 mg/kg/injection, schedule: Q01DX001 (ip), vehicle: saline with Tween-80): 106 % of control
- T/C [1]: 100 % of control and 91 % of control
- T/C [2]: 97 % of control and 91 % of control
- T/C (dose: 200.0 mg/kg/injection, schedule: Q01DX001 (ip), vehicle: saline with Tween-80): 92 % of control
- T/C [3]: 98 % of control and 122 % of control
- T/C [4]: 93 % of control and 91 % of control
- T/C (dose: 400.0 mg/kg/injection, schedule: Q01DX001 (ip), vehicle: saline with Tween-80): 95 % of control
- T/C [5]: 102 % of control and 88 % of control
- T/C [6]: 93 % of control and 88 % of control

Compound: Clc1ccccc1CSc1ncnc2nc[nH]c12
- T/C (dose: 16.0 mg/kg/injection, schedule: Q01DX Z (ip), vehicle: other): 96 % of control
- T/C (dose: 31.0 mg/kg/injection, schedule: Q01DX Z (ip), vehicle: other): 106 % of control
- T/C (dose: 40.0 mg/kg/injection, schedule: Q01DX009 (ip), vehicle: saline): 120 % of control
- T/C (dose: 62.0 mg/kg/injection, schedule: Q01DX Z (ip), vehicle: other): 112 % of control
- T/C (dose: 70.0 mg/kg/injection, schedule: Q01DX009 (ip), vehicle: saline): 110 % of control
- T/C (dose: 187.0 mg/kg/injection, schedule: Q01DX Z (ip), vehicle: other): 150 % of control
- T/C (dose: 265.0 mg/kg/injection, schedule: Q01DX001 (ip), vehicle: acetone): 124 % of control
- T/C (dose: 265.0 mg/kg/injection, schedule: Q01DX001 (ip), vehicle: saline): 107 % of control
- T/C (dose: 300.0 mg/kg/injection, schedule: Q01DX009 (ip), vehicle: acetone): 94 % of control
- T/C (dose: 300.0 mg/kg/injection, schedule: Q01DX009 (ip), vehicle: saline): 123 % of control
- T/C (dose: 375.0 mg/kg/injection, schedule: Q01DX Z (ip), vehicle: other): 103 % of control
- T/C [7]: 110 % of control
- T/C [8]: 115 % of control
- T/C (dose: 450.0 mg/kg/injection, schedule: Q01DX009 (ip), vehicle: acetone): 91 % of control
- T/C (dose: 500.0 mg/kg/injection, schedule: Q01DX Z (ip), vehicle: other): 86 % of control

Compound: Cc1c(C#N)c2ccccc2c2ccccc12
- T/C [9]: 103 % of control
- T/C [10]: 103 % of control
- T/C [11]: 95 % of control

Compound: CCC1(c2ccccc2)C(=O)N(COCc2ccccc2)C(=O)N(COCc2ccccc2)C1=O
- T/C [1]: 98 % of control
- T/C [2]: 98 % of control
- T/C [3]: 102 % of control
- T/C [4]: 95 % of control
- T/C [5]: 95 % of control
- T/C [6]: 98 % of control

Compound: CCCCCCCCCCCCCCCSc1ccc2ccccc2c1
- T/C [12]: 92 % of control
- T/C [13]: 91 % of control
- T/C [14]: 92 % of control

Compound: CN1CCc2c3n(c4ccccc24)C(=O)CCC31 (configuration not stated)
- T/C (dose: 6.25 mg/kg/injection, schedule: Q01DX009 (ip), vehicle: saline): 106 % of control
- T/C (dose: 12.5 mg/kg/injection, schedule: Q01DX009 (ip), vehicle: saline): 101 % of control
- T/C (dose: 25.0 mg/kg/injection, schedule: Q01DX009 (ip), vehicle: saline): 104 % of control

Compound: Cc1ccc(Cl)cc1NC(=O)C(Br)C(Br)C(=O)O (configuration not stated)
- T/C [15]: 91 % of control
- T/C [16]: 101 % of control

Compound: Cn1cc(C(=O)O)c(=O)c2ccc(/C=C/c3ccc([N+](=O)[O-])o3)nc21
- T/C (dose: 100.0 mg/kg/injection, schedule: Q01DX001 (ip), vehicle: saline): 92 % of control
- T/C (dose: 200.0 mg/kg/injection, schedule: Q01DX001 (ip), vehicle: saline): 101 % of control
- T/C [7]: 103 % of control

Compound: O=c1[nH][nH]c(=O)c2c(C3OC(CO)C(O)C3O)[nH]nc12 (configuration not stated)
- T/C (dose: 100.0 mg/kg/injection, schedule: Q01DX005 (ip), vehicle: saline): 90 % of control
- T/C (dose: 200.0 mg/kg/injection, schedule: Q01DX005 (ip), vehicle: saline): 97 % of control

Compound: C=CC[Se]c1ncnc2c1ncn2C1OC(CO)C(O)C1O (configuration not stated)
- T/C (dose: 12.5 mg/kg/injection, schedule: Q01DX005 (ip), vehicle: saline): 100 % of control
- T/C (dose: 25.0 mg/kg/injection, schedule: Q01DX005 (ip), vehicle: saline): 110 % of control
- T/C (dose: 50.0 mg/kg/injection, schedule: Q01DX005 (ip), vehicle: saline): 104 % of control
- T/C (dose: 50.0 mg/kg/injection, schedule: Q01DX009 (ip), vehicle: saline): 90 % of control
- T/C [17]: 88 % of control

Compound: COC(=O)C1C2C=CC(C2=C(c2ccccc2)c2ccccc2)C1C(=O)OC (configuration not stated)
- T/C (dose: 100.0 mg/kg/injection, schedule: Q01DX001 (ip), vehicle: Klucel (hydroxypropylcellulose) (HPC)): 98 % of control
- T/C [15]: 96 % of control
- T/C [12]: 107 % of control
- T/C (dose: 200.0 mg/kg/injection, schedule: Q01DX001 (ip), vehicle: Klucel (hydroxypropylcellulose) (HPC)): 97 % of control
- T/C [16]: 102 % of control
- T/C [13]: 100 % of control
- T/C (dose: 400.0 mg/kg/injection, schedule: Q01DX001 (ip), vehicle: Klucel (hydroxypropylcellulose) (HPC)): 92 % of control
- T/C (dose: 400.0 mg/kg/injection, schedule: Q01DX009 (ip), vehicle: Klucel (hydroxypropylcellulose) (HPC)): 96 % of control
- T/C [14]: 100 % of control

Compound: c1cc2c(c(NC3=NCCCO3)c1)CCCC2
- T/C (dose: 12.5 mg/kg/injection, schedule: Q01DX009 (ip), vehicle: saline with Tween-80): 95 % of control
- T/C (dose: 25.0 mg/kg/injection, schedule: Q01DX009 (ip), vehicle: saline with Tween-80): 106 % of control
- T/C (dose: 50.0 mg/kg/injection, schedule: Q01DX009 (ip), vehicle: saline with Tween-80): 106 % of control
- T/C (dose: 50.0 mg/kg/injection, schedule: Q04DX003 (ip), vehicle: saline with Tween-80): 101 % of control

Compound: CC1=NCCO1
- T/C [9]: 102 % of control
- T/C [10]: 105 % of control
- T/C [11]: 105 % of control

Compound: O=C1NC(=O)C(=Cc2cc(Br)ccc2[N+](=O)[O-])C(=O)N1
- T/C [18]: 91 % of control
- T/C [19]: 104 % of control
- T/C [20]: 91 % of control

Compound: COc1ccc(CC(N)C(=O)O)cc1 (configuration not stated)
- T/C [15]: 103 % of control
- T/C [12]: 101 % of control
- T/C [16]: 92 % of control
- T/C [13]: 101 % of control
- T/C [14]: 106 % of control

Compound: O=S(=O)(/C=C/c1ccc(-c2ccccc2)cc1)c1ccccc1
- T/C (dose: 100.0 mg/kg/injection, schedule: Q01DX001 (ip), vehicle: acetone): 101 % of control
- T/C [17]: 94 % of control
- T/C (dose: 100.0 mg/kg/injection, schedule: Q04DX003 (ip), vehicle: acetone): 108 % of control
- T/C (dose: 200.0 mg/kg/injection, schedule: Q01DX001 (ip), vehicle: acetone): 89 % of control
- T/C (dose: 200.0 mg/kg/injection, schedule: Q01DX009 (ip), vehicle: saline): 96 % of control
- T/C (dose: 200.0 mg/kg/injection, schedule: Q04DX003 (ip), vehicle: acetone): 96 % of control
- T/C (dose: 400.0 mg/kg/injection, schedule: Q01DX001 (ip), vehicle: acetone): 98 % of control
- T/C [8]: 96 % of control
- T/C (dose: 400.0 mg/kg/injection, schedule: Q04DX003 (ip), vehicle: acetone): 96 % of control

Compound: CCSC(SCC)C(OC(=O)c1ccccc1)C(OC(=O)c1ccccc1)C(COC(=O)c1ccccc1)OC(=O)c1ccccc1 (configuration not stated)
- T/C [18]: 102 % of control
- T/C [19]: 102 % of control
- T/C [20]: 96 % of control
